# Results reported in PubChem BioAssay (NCI).
#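 Where inhibition never reached the appropriate level, the endpoint shown equals the highest concentration tested. Otherwise, values were interpolated linearly from a five-concentration, 48-hour dose response in 96-well plates. Definition used: TGI = concentration required for complete inhibition of growth.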
# Columns and labels:
# Assay in all cases: growth of human tumour cells (NCI), 48 h
# [1] = tested on: 786-0 renal
# [2] = tested on: A498 renal
# [3] = tested on: A549 NSCLC
# [4] = tested on: ACHN renal
# [5] = tested on: BT-549 breast
# [6] = tested on: CAKI-1 renal
# [7] = tested on: CCRF-CEM leukemia
# [8] = tested on: COLO 205 colon
# [9] = tested on: DU-145 prostate
# [10] = tested on: EKVX NSCLC
# [11] = tested on: HCC-2998 colon
# [12] = tested on: HCT-116 colon
# [13] = tested on: HCT-15 colon
# [14] = tested on: HL-60(TB) leukemia
# [15] = tested on: HOP-62 NSCLC
# [16] = tested on: HOP-92 NSCLC
# [17] = tested on: HS 578T breast
# [18] = tested on: HT29 colon
# [19] = tested on: IGROV1 ovarian
# [20] = tested on: K-562 leukemia
# [21] = tested on: KM12 colon
# [22] = tested on: LOX IMVI melanoma
# [23] = tested on: M14 melanoma
# [24] = tested on: MCF7 breast
# [25] = tested on: MDA-MB-231 breast
# [26] = tested on: MDA-MB-435
# [27] = tested on: MDA-N
# [28] = tested on: MOLT-4 leukemia
# [29] = tested on: NCI-H226 lung
# [30] = tested on: NCI-H23 lung
# [31] = tested on: NCI-H460 lung
# [32] = tested on: NCI-H522 lung
# [33] = tested on: NCI/ADR-RES ovarian
# [34] = tested on: OVCAR-3 ovarian
# [35] = tested on: OVCAR-4 ovarian
# [36] = tested on: OVCAR-5 ovarian
# [37] = tested on: OVCAR-8 ovarian
# [38] = tested on: PC-3 prostate
# [39] = tested on: RPMI-8226 leukemia
# [40] = tested on: RXF 393 renal
# [41] = tested on: SF-268 CNS
# [42] = tested on: SF-295 CNS
# [43] = tested on: SF-539 CNS
# [44] = tested on: SK-MEL-2 melanoma
# [45] = tested on: SK-MEL-28 melanoma
# [46] = tested on: SK-MEL-5 melanoma
# [47] = tested on: SK-OV-3 ovarian
# [48] = tested on: SN12C renal
# [49] = tested on: SNB-19 CNS
# [50] = tested on: SNB-75 CNS
# [51] = tested on: SW-620 colon
# [52] = tested on: T-47D breast
# [53] = tested on: TK-10 renal
# [54] = tested on: U251 CNS
# [55] = tested on: UACC-257 melanoma
# [56] = tested on: UACC-62 melanoma
# [57] = tested on: UO-31 renal
# [58] = tested on: MALME-3M melanoma
# [59] = tested on: SR leukemia
smiles,measurement,setting,value
C/C=C/C=C\C1OC(O)([C@H](CC)C(=O)NC/C=C/C=C(\C)[C@H](OC)C(C)C2OC(\C=C/C=C/C=C(\C)C(=O)c3c(O)ccn(C)c3=O)[C@H](O)[C@@H]2O)C(O)C(O)C1(C)C (some centres not stated),TGI,[1],> 100 µM
same,TGI,[2],> 100 µM
same,TGI,[3],> 100 µM
same,TGI,[4],> 100 µM
same,TGI,[5],> 100 µM
same,TGI,[6],> 100 µM
same,TGI,[7],> 100 µM
same,TGI,[8],> 100 µM
same,TGI,[9],> 100 µM
same,TGI,[10],> 100 µM
same,TGI,[11],> 100 µM
same,TGI,[12],> 100 µM
same,TGI,[13],> 100 µM
same,TGI,[14],> 100 µM
same,TGI,[15],> 100 µM
same,TGI,[16],> 100 µM
same,TGI,[17],> 100 µM
same,TGI,[18],> 100 µM
same,TGI,[19],> 100 µM
same,TGI,[20],> 100 µM
same,TGI,[21],> 100 µM
same,TGI,[22],> 100 µM
same,TGI,[23],> 100 µM
same,TGI,[24],> 100 µM
same,TGI,[25],> 100 µM
same,TGI,[26],> 100 µM
same,TGI,[27],> 100 µM
same,TGI,[28],> 100 µM
same,TGI,[29],> 100 µM
same,TGI,[30],> 100 µM
same,TGI,[31],> 100 µM
same,TGI,[32],> 100 µM
same,TGI,[33],> 100 µM
same,TGI,[34],> 100 µM
same,TGI,[35],> 100 µM
same,TGI,[36],> 100 µM
same,TGI,[37],> 100 µM
same,TGI,[38],> 100 µM
same,TGI,[39],> 100 µM
same,TGI,[40],> 100 µM
same,TGI,[41],> 100 µM
same,TGI,[42],> 100 µM
same,TGI,[43],> 100 µM
same,TGI,[44],> 100 µM
same,TGI,[45],> 100 µM
same,TGI,[46],> 100 µM
same,TGI,[47],> 100 µM
same,TGI,[48],> 100 µM
same,TGI,[49],> 100 µM
same,TGI,[50],> 100 µM
same,TGI,[51],> 100 µM
same,TGI,[52],> 100 µM
same,TGI,[53],> 100 µM
same,TGI,[54],> 100 µM
same,TGI,[55],> 100 µM
same,TGI,[56],> 100 µM
same,TGI,[57],> 100 µM
Cc1nn(C(=O)Cc2ccccc2)c2c1C(c1ccccc1[N+](=O)[O-])SC(N)=N2 (configuration not stated),TGI,[1],> 100 µM
same,TGI,[2],> 100 µM
same,TGI,[3],> 100 µM
same,TGI,[4],> 100 µM
same,TGI,[5],> 100 µM
same,TGI,[6],> 100 µM
same,TGI,[7],> 100 µM
same,TGI,[8],> 100 µM
same,TGI,[9],> 100 µM
same,TGI,[10],> 100 µM
same,TGI,[11],> 100 µM
same,TGI,[12],> 100 µM
same,TGI,[13],> 100 µM
same,TGI,[14],> 100 µM
same,TGI,[15],> 100 µM
same,TGI,[17],> 100 µM
same,TGI,[18],> 100 µM
same,TGI,[19],> 100 µM
same,TGI,[20],> 100 µM
same,TGI,[21],> 100 µM
same,TGI,[22],> 100 µM
same,TGI,[23],> 100 µM
same,TGI,[58],> 100 µM
same,TGI,[24],> 100 µM
same,TGI,[25],> 100 µM
same,TGI,[26],> 100 µM
same,TGI,[27],> 100 µM
same,TGI,[28],> 100 µM
same,TGI,[29],> 100 µM
same,TGI,[30],> 100 µM
same,TGI,[31],> 100 µM
same,TGI,[32],> 100 µM
same,TGI,[37],> 100 µM
same,TGI,[38],> 100 µM
same,TGI,[39],> 100 µM
same,TGI,[41],> 100 µM
same,TGI,[42],> 100 µM
same,TGI,[43],> 100 µM
same,TGI,[45],> 100 µM
same,TGI,[46],> 100 µM
same,TGI,[47],> 100 µM
same,TGI,[48],> 100 µM
same,TGI,[49],> 100 µM
same,TGI,[50],> 100 µM
same,TGI,[59],> 100 µM
same,TGI,[51],> 100 µM
same,TGI,[52],> 100 µM
same,TGI,[53],> 100 µM
same,TGI,[55],> 100 µM
same,TGI,[56],> 100 µM
same,TGI,[57],> 100 µM
CC1OC(OC2C(O[C@@H]3C[C@@H]4CC[C@@H]5[C@H](CC[C@]6(C)C7C(C[C@@H]56)O[C@]5(CC[C@@H](C)CO5)[C@H]7C)[C@@]4(C)C[C@H]3O)OC(CO)C(O)C2O)C(O)C(O)C1O (some centres not stated),TGI,[2],5.29 µM
same,TGI,[5],4.15 µM
same,TGI,[6],3.22 µM
same,TGI,[7],3.52 µM
same,TGI,[8],3.41 µM
same,TGI,[9],3.13 µM
same,TGI,[11],3.21 µM
same,TGI,[13],3.27 µM
same,TGI,[14],4.48 µM
same,TGI,[16],6.25 µM
same,TGI,[17],5.26 µM
same,TGI,[20],5.94 µM
same,TGI,[22],3.29 µM
same,TGI,[58],3.15 µM
same,TGI,[25],3.19 µM
same,TGI,[26],2.86 µM
same,TGI,[27],13.6 µM
same,TGI,[29],6.08 µM
same,TGI,[30],3.14 µM
same,TGI,[34],3.02 µM
same,TGI,[35],3.28 µM
same,TGI,[36],2.85 µM
same,TGI,[39],4.9 µM
same,TGI,[40],3.65 µM
same,TGI,[41],3.5 µM
same,TGI,[42],3.2 µM
same,TGI,[43],3.02 µM
same,TGI,[45],3.43 µM
same,TGI,[46],4.22 µM
same,TGI,[49],33 µM
same,TGI,[59],5.24 µM
same,TGI,[52],3.7 µM
same,TGI,[53],3.06 µM
same,TGI,[55],3.35 µM
same,TGI,[56],3.16 µM
C/C(=N/NC(=S)NCCc1ccccn1)c1cnccn1,TGI,[1],57.2 µM
same,TGI,[3],> 100 µM
same,TGI,[4],> 100 µM
same,TGI,[5],> 100 µM
same,TGI,[6],> 100 µM
same,TGI,[7],68.9 µM
same,TGI,[8],> 100 µM
same,TGI,[9],> 100 µM
same,TGI,[10],> 100 µM
same,TGI,[11],> 100 µM
same,TGI,[12],> 100 µM
same,TGI,[15],> 100 µM
same,TGI,[16],> 100 µM
same,TGI,[17],> 100 µM
same,TGI,[18],> 100 µM
same,TGI,[19],> 100 µM
same,TGI,[21],> 100 µM
same,TGI,[22],40.1 µM
same,TGI,[23],> 100 µM
same,TGI,[58],> 100 µM
same,TGI,[25],> 100 µM
same,TGI,[26],> 100 µM
same,TGI,[27],> 100 µM
same,TGI,[28],41.4 µM
same,TGI,[30],> 100 µM
same,TGI,[31],> 100 µM
same,TGI,[32],> 100 µM
same,TGI,[34],> 100 µM
same,TGI,[35],> 100 µM
same,TGI,[36],> 100 µM
same,TGI,[38],> 100 µM
same,TGI,[39],80 µM
same,TGI,[41],> 100 µM
same,TGI,[42],63.8 µM
same,TGI,[44],> 100 µM
same,TGI,[45],> 100 µM
same,TGI,[46],> 100 µM
same,TGI,[47],70.5 µM
same,TGI,[48],74.7 µM
same,TGI,[49],> 100 µM
same,TGI,[50],> 100 µM
same,TGI,[59],65.9 µM
same,TGI,[51],> 100 µM
same,TGI,[52],> 100 µM
same,TGI,[53],> 100 µM
same,TGI,[54],> 100 µM
same,TGI,[55],> 100 µM
same,TGI,[56],64.1 µM
same,TGI,[57],90.2 µM
